According to PubChem BioAssay AID330 (DTP/NCI, 2004):
Several values for one entry are separate records, joined by “and”; a condition that tells them apart may be missing. Equal values may be shown once. Toxic doses and inconclusive results are not listed.

Test system: P388 leukemia ip, CD2F1 mice, survival T/C
Assay: NCI In Vivo Anticancer Drug Screen. Data for tumor model P388 Leukemia (intraperitoneal) in CD2F1 (CDF1) mice
Conditions: endpoint: median survival time, higher = longer survival
Summary of the method: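 Mice carrying the transplanted tumor received test compound or vehicle. Survival was recorded in each group, and the value is the treated-group measurement divided by that of the vehicle-treated control group.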

[1] = dose: 50.0 mg/kg/injection, schedule: Q01DX005 (ip), vehicle: saline with Tween-80
[2] = dose: 100.0 mg/kg/injection, schedule: Q01DX005 (ip), vehicle: saline with Tween-80
[3] = dose: 200.0 mg/kg/injection, schedule: Q01DX005 (ip), vehicle: saline with Tween-80
[4] = dose: 50.0 mg/kg/injection, schedule: Q01DX009 (ip), vehicle: saline with Tween-80
[5] = dose: 100.0 mg/kg/injection, schedule: Q01DX009 (ip), vehicle: saline with Tween-80
[6] = dose: 200.0 mg/kg/injection, schedule: Q01DX009 (ip), vehicle: saline with Tween-80
[7] = dose: 12.5 mg/kg/injection, schedule: Q01DX009 (ip), vehicle: saline with Tween-80
[8] = dose: 100.0 mg/kg/injection, schedule: Q01DX001 (ip), vehicle: Klucel (hydroxypropylcellulose) (HPC)
[9] = dose: 200.0 mg/kg/injection, schedule: Q01DX001 (ip), vehicle: Klucel (hydroxypropylcellulose) (HPC)
[10] = dose: 400.0 mg/kg/injection, schedule: Q01DX001 (ip), vehicle: Klucel (hydroxypropylcellulose) (HPC)
[11] = dose: 50.0 mg/kg/injection, schedule: Q01DX009 (ip), vehicle: Klucel (hydroxypropylcellulose) (HPC)
[12] = dose: 100.0 mg/kg/injection, schedule: Q01DX009 (ip), vehicle: Klucel (hydroxypropylcellulose) (HPC)
[13] = dose: 50.0 mg/kg/injection, schedule: Q01DX005 (ip), vehicle: Klucel (hydroxypropylcellulose) (HPC)
[14] = dose: 100.0 mg/kg/injection, schedule: Q01DX005 (ip), vehicle: Klucel (hydroxypropylcellulose) (HPC)
[15] = dose: 6.25 mg/kg/injection, schedule: Q01DX009 (ip), vehicle: saline with Tween-80
[16] = dose: 60.0 mg/kg/injection, schedule: Q01DX005 (ip), vehicle: saline with Tween-80
[17] = dose: 120.0 mg/kg/injection, schedule: Q01DX005 (ip), vehicle: saline with Tween-80
[18] = dose: 240.0 mg/kg/injection, schedule: Q01DX005 (ip), vehicle: saline with Tween-80

Question: How did the T/C (dose: 25.0 mg/kg/injection, schedule: Q04DX003 (ip), vehicle: saline with Tween-80) turn out when O=C(CCBr)c1ccc(Cl)cc1 was run?
Answer: 107 % of control

Question: And the T/C (dose: 50.0 mg/kg/injection, schedule: Q04DX003 (ip), vehicle: saline with Tween-80)?
Answer: 103 % of control

Question: And the T/C (dose: 100.0 mg/kg/injection, schedule: Q04DX003 (ip), vehicle: saline with Tween-80)?
Answer: 100 % of control

Question: Which results are given for COC(=O)c1c(C(=O)OC)c2c(C)nn3ccc1n23?
Answer: T/C (dose: 25.0 mg/kg/injection, schedule: Q01DX005 (ip), vehicle: saline with Tween-80): 96 % of control; T/C [1]: 96 % of control; T/C [2]: 98 % of control; T/C [3]: 93 % of control

Question: C=CCNC(=S)N=Nc1c(O)[nH]c2ccccc12 was tested. Which T/C [4] did it give?
Answer: 94 % of control

Question: What about the T/C [5] of the same compound?
Answer: 91 % of control

Question: What about the T/C [6] of the same compound?
Answer: 88 % of control

Question: What does the source list for Clc1cc2c(nn1)Nc1ccccc1S2?
Answer: T/C [7]: 97 % of control; T/C (dose: 25.0 mg/kg/injection, schedule: Q01DX009 (ip), vehicle: saline with Tween-80): 96 % of control; T/C [4]: 99 % of control and 87 % of control; T/C [5]: 98 % of control; T/C [6]: 87 % of control

Question: With O=C(O)CN(CCN(CC(=O)O)CC(=O)O)CC(=O)O.[Cl][Pd][Cl] as the compound, how does the T/C (dose: 15.0 mg/kg/injection, schedule: Q01DX005 (ip), vehicle: saline) read?
Answer: 97 % of control

Question: And the T/C (dose: 30.0 mg/kg/injection, schedule: Q01DX005 (ip), vehicle: saline)?
Answer: 93 % of control

Question: What about the T/C (dose: 60.0 mg/kg/injection, schedule: Q01DX005 (ip), vehicle: saline) of the same compound?
Answer: 91 % of control and 95 % of control

Question: Which T/C [8] does the source give for COc1cc(CO)c(Br)c(OC)c1OC here?
Answer: 100 % of control

Question: And the T/C [9]?
Answer: 100 % of control

Question: And the T/C [10]?
Answer: 106 % of control

Question: NC(=Nc1ccc(Cl)cc1)N/N=C/c1ccc(Cl)c(Cl)c1 was tested. Which T/C (dose: 25.0 mg/kg/injection, schedule: Q04DX002 (ip), vehicle: saline with Tween-80) did it give?
Answer: 103 % of control

Question: And the T/C (dose: 40.0 mg/kg/injection, schedule: Q04DX002 (ip), vehicle: saline with Tween-80)?
Answer: 100 % of control

Question: And the T/C (dose: 100.0 mg/kg/injection, schedule: Q04DX002 (ip), vehicle: saline with Tween-80)?
Answer: 106 % of control

Question: What about the T/C (dose: 200.0 mg/kg/injection, schedule: Q04DX002 (ip), vehicle: saline with Tween-80) of the same compound?
Answer: 107 % of control

Question: What about the T/C (dose: 400.0 mg/kg/injection, schedule: Q04DX002 (ip), vehicle: saline with Tween-80) of the same compound?
Answer: 113 % of control

Question: For CCOC(CNc1c[nH]c(=O)[nH]c1=O)OCC, which T/C [4] is on record?
Answer: 100 % of control

Question: What about the T/C [5] of the same compound?
Answer: 100 % of control

Question: What about the T/C [6] of the same compound?
Answer: 103 % of control

Question: And the T/C (dose: 400.0 mg/kg/injection, schedule: Q01DX009 (ip), vehicle: saline with Tween-80)?
Answer: 100 % of control

Question: CC(=O)Oc1c2c(c(OC(C)=O)c3ccccc13)C(=O)C(O)C(C)O2 (stereo not given) was tested. Which T/C [8] did it give?
Answer: 102 % of control

Question: And the T/C [9]?
Answer: 96 % of control

Question: And the T/C [10]?
Answer: 100 % of control

Question: Which T/C [11] does the source give for C=CCc1ccc(C(=O)OCCCCCCCCCC)c(OC)c1 here?
Answer: 103 % of control

Question: And the T/C [12]?
Answer: 105 % of control

Question: And the T/C (dose: 200.0 mg/kg/injection, schedule: Q01DX009 (ip), vehicle: Klucel (hydroxypropylcellulose) (HPC))?
Answer: 105 % of control

Question: Which results are given for OC1=CC(=S)NC(c2ccccc2)C1 (stereo not given)?
Answer: T/C [13]: 99 % of control; T/C [14]: 106 % of control; T/C (dose: 200.0 mg/kg/injection, schedule: Q01DX005 (ip), vehicle: Klucel (hydroxypropylcellulose) (HPC)): 108 % of control

Question: What does the source list for CC1OCC(Br)([N+](=O)[O-])CO1 (stereo not given)?
Answer: T/C (dose: 3.12 mg/kg/injection, schedule: Q01DX009 (ip), vehicle: saline with Tween-80): 104 % of control and 110 % of control; T/C [15]: 108 % of control and 112 % of control; T/C [7]: 100 % of control and 103 % of control and 113 % of control

Question: For O=c1c2ccccc2oc2cccc(NCCCN3CCN(CCCNc4cccc5oc6ccccc6c(=O)c45)CC3)c12, which T/C (dose: 7.0 mg/kg/injection, schedule: Q01DX005 (ip), vehicle: saline with Tween-80) is on record?
Answer: 90 % of control

Question: How did the T/C (dose: 60.0 mg/kg/injection, schedule: Q01DX005 (ip), vehicle: Klucel (hydroxypropylcellulose) (HPC)) turn out when CN(Cc1ccc([N+](=O)[O-])cc1)C(=O)Nc1ccc(S(=O)(=O)F)cc1 was run?
Answer: 110 % of control

Question: And the T/C (dose: 120.0 mg/kg/injection, schedule: Q01DX005 (ip), vehicle: Klucel (hydroxypropylcellulose) (HPC))?
Answer: 92 % of control

Question: And the T/C (dose: 240.0 mg/kg/injection, schedule: Q01DX005 (ip), vehicle: Klucel (hydroxypropylcellulose) (HPC))?
Answer: 92 % of control

Question: For CCCC(O)C[N+](=O)[O-] (stereo not given), which T/C (dose: 100.0 mg/kg/injection, schedule: Q04DX003 (ip), vehicle: saline) is on record?
Answer: 109 % of control

Question: And the T/C (dose: 200.0 mg/kg/injection, schedule: Q04DX003 (ip), vehicle: saline)?
Answer: 109 % of control

Question: And the T/C (dose: 400.0 mg/kg/injection, schedule: Q04DX003 (ip), vehicle: saline)?
Answer: 118 % of control

Question: For COc1ccc(S(=O)c2coc3ccccc3c2=O)cc1 (stereo not given), which T/C [16] is on record?
Answer: 99 % of control

Question: What about the T/C [17] of the same compound?
Answer: 100 % of control

Question: What about the T/C [18] of the same compound?
Answer: 100 % of control

Question: What does the source list for Cc1cc(NCc2ccccc2)c(C)c2c1C=NCC2?
Answer: T/C (dose: 12.5 mg/kg/injection, schedule: Q01DX009 (ip), vehicle: distilled water + Tween-80): 97 % of control; T/C (dose: 25.0 mg/kg/injection, schedule: Q01DX009 (ip), vehicle: distilled water + Tween-80): 97 % of control; T/C (dose: 50.0 mg/kg/injection, schedule: Q01DX009 (ip), vehicle: distilled water + Tween-80): 106 % of control; T/C (dose: 100.0 mg/kg/injection, schedule: Q01DX009 (ip), vehicle: distilled water + Tween-80): 92 % of control; T/C (dose: 200.0 mg/kg/injection, schedule: Q01DX009 (ip), vehicle: distilled water + Tween-80): 87 % of control

Question: Which T/C [1] does the source give for CCOC(=O)c1sc(SC)c2c(N)nc(C)nc12 here?
Answer: 98 % of control

Question: And the T/C [2]?
Answer: 94 % of control

Question: What about the T/C [3] of the same compound?
Answer: 95 % of control

Question: Which results are given for O=[N+]([O-])[O][Sn]([O][Sn]([O][N+](=O)[O-])([c]1ccccc1)[c]1ccccc1)([c]1ccccc1)[c]1ccccc1?
Answer: T/C (dose: 1.56 mg/kg/injection, schedule: Q01DX005 (ip), vehicle: Klucel (hydroxypropylcellulose) (HPC)): 102 % of control; T/C (dose: 3.12 mg/kg/injection, schedule: Q01DX005 (ip), vehicle: Klucel (hydroxypropylcellulose) (HPC)): 99 % of control; T/C (dose: 6.25 mg/kg/injection, schedule: Q01DX005 (ip), vehicle: Klucel (hydroxypropylcellulose) (HPC)): 97 % of control; T/C (dose: 12.5 mg/kg/injection, schedule: Q01DX005 (ip), vehicle: Klucel (hydroxypropylcellulose) (HPC)): 122 % of control; T/C (dose: 12.5 mg/kg/injection, schedule: Q01DX005 (ip), vehicle: saline): 96 % of control

Question: What does the source list for COC(=O)C1=CN(C)/C(=C/C=C(\C#N)C(=O)OC)C(C#N)=C1N?
Answer: T/C [8]: 96 % of control; T/C [9]: 97 % of control; T/C [10]: 96 % of control

Question: Which results are given for Cc1ccc(C(C#N)C(=O)CCCC(=O)Nc2ccc(C)c(C)c2)cc1 (stereo not given)?
Answer: T/C [16]: 109 % of control; T/C [17]: 100 % of control; T/C [18]: 100 % of control

Question: For CCN1C(C)N1P(=S)(OC1CC(C)(C)N(O)C(C)(C)C1)OC1CC(C)(C)N(O)C(C)(C)C1 (stereo not given), which T/C [13] is on record?
Answer: 93 % of control

Question: What about the T/C [14] of the same compound?
Answer: 86 % of control

Question: For CCOc1cc2c(cc1C(C)c1cc(C(C)(C)C)c(O)c(C(C)(C)C)c1)OCO2 (stereo not given), which T/C [1] is on record?
Answer: 100 % of control

Question: What about the T/C [2] of the same compound?
Answer: 91 % of control

Question: What about the T/C [3] of the same compound?
Answer: 88 % of control

Question: For COC1C(O)CC(OC2CC(OC3CC(O[C@@H]4C(=O)c5c(cc6cc(OC7CC(OC8CC(O)C(O)C(C)O8)C(O)C(C)O7)c(C)c(O)c6c5O)C[C@H]4[C@H](OC)C(=O)[C@@H](O)[C@@H](C)O)OC(C)C3O)OC(C)C2O)OC1C (stereo not given in full), which T/C (dose: 375.0 micrograms/kg/injection, schedule: Q01DX009 (ip), vehicle: saline) is on record?
Answer: 121 % of control

Question: And the T/C (dose: 1500.0 micrograms/kg/injection, schedule: Q01DX009 (ip), vehicle: saline)?
Answer: 170 % of control

Question: Which T/C [11] does the source give for CCN(CC)CCCC(CO)Nc1ccnc2cc(Cl)ccc12 (stereo not given) here?
Answer: 104 % of control and 100 % of control

Question: What about the T/C [12] of the same compound?
Answer: 96 % of control and 98 % of control

Question: With COC1(OC)C2CCC1C(Cl)=C2Cl as the compound, how does the T/C (dose: 3.13 mg/kg/injection, schedule: Q01DX009 (ip), vehicle: saline with Tween-80) read?
Answer: 93 % of control

Question: And the T/C (dose: 3.13 mg/kg/injection, schedule: Q01DX009 (ip), vehicle: saline)?
Answer: 108 % of control

Question: And the T/C [15]?
Answer: 108 % of control

Question: And the T/C (dose: 6.25 mg/kg/injection, schedule: Q01DX009 (ip), vehicle: saline)?
Answer: 107 % of control

Question: What about the T/C (dose: 12.5 mg/kg/injection, schedule: Q01DX009 (ip), vehicle: saline) of the same compound?
Answer: 124 % of control
